Results: patent US12552772B2, “2-pyrazole anilines and related analogs for inhibiting YAP/TAZ-TEAD” (KATHOLIEKE UNIVERSITEIT LEUVEN, priority 2021, dated 2026)

Assays:
Format in all cases: cell-based
NCI-H226 = test: Mesothelioma cell line proliferation assay (ATPlite), NCI-H226; details: NCI-H226 cells, 6 days, ATPlite cell viability
Description: (§1) Mesothelioma cell lines, NCI-H226 and NCI-H2052 (all sourced from the ATCC cell culture collection) are plated in 96-well plates (Corning® 96 Well White Polystyrene Microplate clear flat bottom, white polystyrene (TC-Treated)), at 1500 cells/well in full medium (RPMI 1640 ATCC modification with L-glutamine, HEPES, Phenol Red, Sodium Pyruvate, High glucose, Low sodium bicarbonate and 10% fetal bovine serum). Cells are incubated overnight at 37° C. in an incubator with 5% CO2. Then compounds, dissolved in DMSO, are added in dose-response. Cells are incubated with compound dilutions for another 6 days at 37° C. in an incubator with 5% CO2. Cell viability is quantitated using the ATPlite kit (Perkin-Elmer) and the luminescence is read-out using an Envision instrument (Perkin-Elmer). The amount of relative light units produced using the ATPlite kit is used to calculated percent of inhibition.
(§2) The activities of example compounds tested are depicted in the table below. The activity ranges A, B and C refer to EC50 values in the mesothelioma cell line proliferation assay as described as follows: “A”: EC50<1 μM; “B”: 1 μM s EC50≤10 μM and “C”: EC50>10 μM. NT: not tested.

NCI-H2052 = test: Mesothelioma cell line proliferation assay (ATPlite), NCI-H2052; details: NCI-H2052 cells, 6 days, ATPlite cell viability
Description: as §1, §2

[1] = tested on: YAP/TAZ-TEAD transcription; test: Reporter gene assay for measuring the inhibition of YAP/TAZ-TEAD transcription (TEAD-responsive element luciferase reporter in Hek293T cells); details: 24 hours incubation
Summary of the method: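 Hek293T cells transiently transfected with a TEAD-responsive element luciferase reporter were plated onto compounds and incubated 24 h at 37 °C/5% CO2. SteadyLite luminescence gave percent inhibition, normalised to vehicle (0%) and positive control inhibitor (100%); EC50 derived.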

SMILES	EC50 (NCI-H226; Homo sapiens, 144 h) [nM]	EC50 (NCI-H2052; Homo sapiens, NCI-H2052, 144 h) [nM]	EC50 ([1]; Homo sapiens, HEK-293T) [nM]	EC50 (NCI-H2052) [nM]	EC50 (NCI-H226) [nM]	EC50 [1] [nM]
C=CC(=O)NCc1cc(C2CCC(F)(F)CC2)cc(-c2ccn(C(F)F)n2)n1 [Cpd. No. 228, N-((4-(4,4-difluorocyclohexyl)-6-(1-(difluoromethyl)-1H-pyrazol-3-yl)pyridin-2-yl)methyl)acrylamide]	< 1000	> 10000	< 1000	–	–	–
CNS(=O)(=O)CCNc1cc(-c2ccccc2)cc(-c2ccn(Cc3cccnc3)n2)c1 [compound 052, N-methyl-2-((5-(1-(pyridin-3-ylmethyl)-1H-pyrazol-3-yl)-[1,1′-biphenyl]-3-yl)amino)ethane-1-sulfonamide]	> 10000	> 10000	1000 to 20000	–	–	–
C=CC(=O)Nc1cc(-c2ccccc2)cc(-c2ccn(Cc3cccnc3)n2)c1 [compound 083, N-(5-(1-(pyridin-3-ylmethyl)-1H-pyrazol-3-yl)-[1,1′-biphenyl]-3-yl)acrylamide]	< 1000	1000 to 10000	< 1000	–	–	–
C=CC(=O)NCc1cc(-c2ccccc2)cc(-c2ccn(C)n2)c1 [compound 137, N-((5-(1-methyl-1H-pyrazol-3-yl)-[1,1′-biphenyl]-3-yl)methyl)acrylamide]	< 1000	> 10000	< 1000	–	–	–
C=CC(=O)NCc1ccc(-c2ccc(C(F)(F)F)cc2)cc1-c1ccn(C)n1 [compound 140, N-((3-(1-methyl-1H-pyrazol-3-yl)-4′-(trifluoromethyl)-[1,1′-biphenyl]-4-yl)methyl)acrylamide]	< 1000	< 1000	< 1000	–	–	–
C=CC(=O)NCc1ccc(-c2cccc(C(F)(F)F)c2)cc1-c1ccn(C)n1 [compound 141, N-((3-(1-methyl-1H-pyrazol-3-yl)-3′-(trifluoromethyl)-[1,1′-biphenyl]-4-yl)methyl)acrylamide]	< 1000	< 1000	< 1000	–	–	–
C=CC(=O)NCc1ccc(-c2cccc(F)c2)cc1-c1ccn(C)n1 [compound 142, N-((3′-fluoro-3-(1-methyl-1H-pyrazol-3-yl)-[1,1′-biphenyl]-4-yl)methyl)acrylamide]	< 1000	< 1000	< 1000	–	–	–
C=CC(=O)NCc1ccc(-c2ccc(F)c(F)c2)cc1-c1ccn(C)n1 [compound 144, N-((3′,4′-difluoro-3-(1-methyl-1H-pyrazol-3-yl)-[1,1′-biphenyl]-4-yl)methyl)acrylamide]	< 1000	< 1000	< 1000	–	–	–
C=CC(=O)NCc1ccc(-c2ccc(F)cc2F)cc1-c1ccn(C)n1 [compound 145, N-((2′,4′-difluoro-3-(1-methyl-1H-pyrazol-3-yl)-[1,1′-biphenyl]-4-yl)methyl)acrylamide]	< 1000	< 1000	< 1000	–	–	–
C=CC(=O)NCc1ccc(-c2ccc(F)cc2)cc1-c1ccn(CCOC)n1 [compound 149, N-((4′-fluoro-3-(1-(2-methoxyethyl)-1H-pyrazol-3-yl)-[1,1′-biphenyl]-4-yl)methyl)acrylamide]	< 1000	< 1000	< 1000	–	–	–
C=CC(=O)NCc1ccc(-c2ccc(Cl)cc2)cc1-c1ccn(C)n1 [compound 157, N-((4′-chloro-3-(1-methyl-1H-pyrazol-3-yl)-[1,1′-biphenyl]-4-yl)methyl)acrylamide]	< 1000	< 1000	< 1000	–	–	–
C=CC(=O)NCc1ccc(-c2ccc(F)cc2)cc1-c1cc[nH]n1 [compound 161, N-((4′-fluoro-3-(1H-pyrazol-3-yl)-[1,1′-biphenyl]-4-yl)methyl)acrylamide]	< 1000	< 1000	< 1000	–	–	–
C=CC(=O)NCc1ccc(-c2ccc(F)cc2)cc1-c1cnn(C)c1 [compound 162, N-((4′-fluoro-3-(1-methyl-1H-pyrazol-4-yl)-[1,1′-biphenyl]-4-yl)methyl)acrylamide]	< 1000	< 1000	< 1000	–	–	–

More lines, now with the values ahead:

EC50 (NCI-H226; Homo sapiens, 144 h) [nM]	EC50 (NCI-H2052; Homo sapiens, NCI-H2052, 144 h) [nM]	EC50 ([1]; Homo sapiens, HEK-293T) [nM]	EC50 (NCI-H2052) [nM]	EC50 (NCI-H226) [nM]	EC50 [1] [nM]	SMILES
< 1000	> 10000	< 1000	–	–	–	C=CC(=O)NCc1cnc(-c2ccc(F)cc2)cc1-c1cc2n(n1)CCCC2 [Cpd. No. 231, N-((6-(4-fluorophenyl)-4-(4,5,6,7-tetrahydropyrazolo[1,5-a]pyridin-2-yl)pyridin-3-yl)methyl)acrylamide]
< 1000	1000 to 10000	< 1000	–	–	–	C=CC(=O)NCc1cnc(-c2ccc(F)cc2)cc1-n1nnc(C)n1 [Cpd. No. 249, N-((6-(4-fluorophenyl)-4-(5-methyl-2H-tetrazol-2-yl)pyridin-3-yl)methyl)acrylamide]
< 1000	< 1000	< 1000	–	–	–	C=CC(=O)NCc1cnc(-c2ccc(F)cc2)nc1-c1ccn(C)n1 [Cpd. No. 253, N-((2-(4-fluorophenyl)-4-(1-methyl-1H-pyrazol-3-yl)pyrimidin-5-yl)methyl)acrylamide]
< 1000	1000 to 10000	< 1000	–	–	–	C=CC(=O)NCc1cc(-c2ccc(F)cc2)nc(-c2ccn(C(F)F)n2)n1 [Cpd. No. 255, N-((2-(1-(difluoromethyl)-1H-pyrazol-3-yl)-6-(4-fluorophenyl)pyrimidin-4-yl)methyl)acrylamide]
< 1000	< 1000	< 1000	–	–	–	C=CC(=O)N1CCC(c2ccc(-c3ccc(F)cc3)cc2-c2ccn(C)n2)C1 (stereo not drawn) [Cpd. No. 258, 1-(3-(4′-fluoro-3-(1-methyl-1H-pyrazol-3-yl)-[1,1′-biphenyl]-4-yl)pyrrolidin-1-yl)prop-2-en-1-one]
< 1000	–	< 1000	1000 to 10000	–	–	C=CC(=O)N1CCC(c2ccc(-c3ccc(F)cc3)cc2-c2ccn(C(F)F)n2)C1 (stereo not drawn) [Cpd. No. 261, 1-(3-(3-(1-(difluoromethyl)-1H-pyrazol-3-yl)-4′-fluoro-[1,1′-biphenyl]-4-yl)pyrrolidin-1-yl)prop-2-en-1-one]
–	–	–	1000 to 10000	< 1000	< 1000	C=CC(=O)N1CCC(c2ccc(-c3ccc(F)cc3)cc2-c2ccn(C(F)F)n2)C1 (stereo not drawn) [Cpd. No. 261-En1, 1-(3-(3-(1-(difluoromethyl)-1H-pyrazol-3-yl)-4′-fluoro-[1,1′-biphenyl]-4-yl)pyrrolidin-1-yl)prop-2-en-1-one]
–	–	–	> 10000	< 1000	< 1000	C=CC(=O)N1CCC(c2ccc(-c3ccc(F)cc3)cc2-c2ccn(C(F)F)n2)C1 (stereo not drawn) [Cpd. No. 261-En2, 1-(3-(3-(1-(difluoromethyl)-1H-pyrazol-3-yl)-4′-fluoro-[1,1′-biphenyl]-4-yl)pyrrolidin-1-yl)prop-2-en-1-one]
< 1000	–	< 1000	1000 to 10000	–	–	C=CC(=O)N1CCC(c2cnc(-c3ccc(F)cc3)cc2-c2ccn(C(F)F)n2)C1 (stereo not drawn) [Cpd. No. 262, 1-(3-(4-(1-(difluoromethyl)-1H-pyrazol-3-yl)-6-(4-fluorophenyl)pyridin-3-yl)pyrrolidin-1-yl)prop-2-en-1-one]
–	–	–	1000 to 10000	< 1000	< 1000	C=CC(=O)N1CCC(c2cnc(-c3ccc(F)cc3)cc2-c2ccn(C(F)F)n2)C1 (stereo not drawn) [Cpd. No. 262-En1, 1-(3-(4-(1-(difluoromethyl)-1H-pyrazol-3-yl)-6-(4-fluorophenyl)pyridin-3-yl)pyrrolidin-1-yl)prop-2-en-1-one]
–	–	–	> 10000	< 1000	< 1000	C=CC(=O)N1CCC(c2cnc(-c3ccc(F)cc3)cc2-c2ccn(C(F)F)n2)C1 (stereo not drawn) [Cpd. No. 262-En2, 1-(3-(4-(1-(difluoromethyl)-1H-pyrazol-3-yl)-6-(4-fluorophenyl)pyridin-3-yl)pyrrolidin-1-yl)prop-2-en-1-one]
1000 to 10000	> 10000	< 1000	–	–	–	CNS(=O)(=O)CCNc1cnc(-c2ccc(F)cc2)cc1-c1ccn(C(F)F)n1 [compound 131, 2-((4-(1-(difluoromethyl)-1H-pyrazol-3-yl)-6-(4-fluorophenyl)pyridin-3-yl)amino)-N-methylethane-1-sulfonamide]
> 10000	> 10000	< 1000	–	–	–	CNS(=O)(=O)CCNc1ccc(-c2ccc(F)cc2)nc1-c1ccn(C(F)F)n1 [compound 132, 2-((2-(1-(difluoromethyl)-1H-pyrazol-3-yl)-6-(4-fluorophenyl)pyridin-3-yl)amino)-N-methylethane-1-sulfonamide]
< 1000	< 1000	< 1000	–	–	–	C=CC(=O)NCc1ccc(-c2ccc(F)cc2)cc1-c1ccn(C)n1 [compound 143, N-((4′-fluoro-3-(1-methyl-1H-pyrazol-3-yl)-[1,1′-biphenyl]-4-yl)methyl)acrylamide]
< 1000	< 1000	< 1000	–	–	–	C=CC(=O)NCc1ccc(-c2ccc(F)cc2)cc1-c1ccn(CC2CC2)n1 [compound 153, N-((3-(1-(cyclopropylmethyl)-1H-pyrazol-3-yl)-4′-fluoro-[1,1′-biphenyl]-4-yl)methyl)acrylamide]
